In this test the target is full-length human ATR protein (Homo sapiens (Human), UniProt Q13535). The experiment in a line: Binding assay ATR (TR-FRET tracer displacement). The conditions noted are these: TR-FRET. From the text: To determine of binding activity of the test compounds, full-length human ATR protein was expressed and purified together with ATRIP as described above. Furthermore, a fluorescently labelled compound (either tracer A or B as described above) was used as a tracer molecule. Detection of the binding event of the tracer was achieved by time-resolved fluorescence energy transfer (TR-FRET). We used an anti-GST-Terbium antibody (CisBio) that binds to the GST-tag at the N-terminus of ATR-kinase. […] Displacement of the fluorescent tracer by a test compound leads to a reduction of the TR-FRET-signal.
For the assay 50 nl of a 100-fold concentrated solution of the test compound in DMSO was pipetted into a black low volume 384well microtiter plate (MTP, Greiner Bio-One, Frickenhausen, Germany). […] The ATR-working solution was incubated for 30 min at 22° C. prior to dispensing to pre-form the complex of antiGST-Tb+GST-ATR+ATRIP. Then, 3 μl of the ATR-working solution were added to the test compound and the mixture was incubated for 10 min at 22° C. to allow pre-binding of the test compounds to ATR/ATRIP. Then, 2 μl of a 100 nM solution of either tracer A or B in assay buffer were added to the ATR-working solution. The resulting mixture was incubated for 30 min at 22° C. […] The dilution series were prepared separately before the assay on the level of the 100 fold concentrated solutions in DMSO by serial 1:3.4 dilutions in duplicate values for each concentration. IC50 values were calculated by a 4 parameter fit using standard software (GraphPad prism or equivalent).
In general terms: In TR-FRET formats the signal depends on donor and acceptor labels being close together.

Where [1] appears, read: tracer A, read-out: ATR binding (tracer A) IC50.
Setting [2] is: tracer B, read-out: ATR binding (tracer B) IC50.

Read-outs that look alike come from different tables or passages of the source.

Sequence of full-length human ATR protein (Q13535 other isoform, or with tags, fused parts or gaps): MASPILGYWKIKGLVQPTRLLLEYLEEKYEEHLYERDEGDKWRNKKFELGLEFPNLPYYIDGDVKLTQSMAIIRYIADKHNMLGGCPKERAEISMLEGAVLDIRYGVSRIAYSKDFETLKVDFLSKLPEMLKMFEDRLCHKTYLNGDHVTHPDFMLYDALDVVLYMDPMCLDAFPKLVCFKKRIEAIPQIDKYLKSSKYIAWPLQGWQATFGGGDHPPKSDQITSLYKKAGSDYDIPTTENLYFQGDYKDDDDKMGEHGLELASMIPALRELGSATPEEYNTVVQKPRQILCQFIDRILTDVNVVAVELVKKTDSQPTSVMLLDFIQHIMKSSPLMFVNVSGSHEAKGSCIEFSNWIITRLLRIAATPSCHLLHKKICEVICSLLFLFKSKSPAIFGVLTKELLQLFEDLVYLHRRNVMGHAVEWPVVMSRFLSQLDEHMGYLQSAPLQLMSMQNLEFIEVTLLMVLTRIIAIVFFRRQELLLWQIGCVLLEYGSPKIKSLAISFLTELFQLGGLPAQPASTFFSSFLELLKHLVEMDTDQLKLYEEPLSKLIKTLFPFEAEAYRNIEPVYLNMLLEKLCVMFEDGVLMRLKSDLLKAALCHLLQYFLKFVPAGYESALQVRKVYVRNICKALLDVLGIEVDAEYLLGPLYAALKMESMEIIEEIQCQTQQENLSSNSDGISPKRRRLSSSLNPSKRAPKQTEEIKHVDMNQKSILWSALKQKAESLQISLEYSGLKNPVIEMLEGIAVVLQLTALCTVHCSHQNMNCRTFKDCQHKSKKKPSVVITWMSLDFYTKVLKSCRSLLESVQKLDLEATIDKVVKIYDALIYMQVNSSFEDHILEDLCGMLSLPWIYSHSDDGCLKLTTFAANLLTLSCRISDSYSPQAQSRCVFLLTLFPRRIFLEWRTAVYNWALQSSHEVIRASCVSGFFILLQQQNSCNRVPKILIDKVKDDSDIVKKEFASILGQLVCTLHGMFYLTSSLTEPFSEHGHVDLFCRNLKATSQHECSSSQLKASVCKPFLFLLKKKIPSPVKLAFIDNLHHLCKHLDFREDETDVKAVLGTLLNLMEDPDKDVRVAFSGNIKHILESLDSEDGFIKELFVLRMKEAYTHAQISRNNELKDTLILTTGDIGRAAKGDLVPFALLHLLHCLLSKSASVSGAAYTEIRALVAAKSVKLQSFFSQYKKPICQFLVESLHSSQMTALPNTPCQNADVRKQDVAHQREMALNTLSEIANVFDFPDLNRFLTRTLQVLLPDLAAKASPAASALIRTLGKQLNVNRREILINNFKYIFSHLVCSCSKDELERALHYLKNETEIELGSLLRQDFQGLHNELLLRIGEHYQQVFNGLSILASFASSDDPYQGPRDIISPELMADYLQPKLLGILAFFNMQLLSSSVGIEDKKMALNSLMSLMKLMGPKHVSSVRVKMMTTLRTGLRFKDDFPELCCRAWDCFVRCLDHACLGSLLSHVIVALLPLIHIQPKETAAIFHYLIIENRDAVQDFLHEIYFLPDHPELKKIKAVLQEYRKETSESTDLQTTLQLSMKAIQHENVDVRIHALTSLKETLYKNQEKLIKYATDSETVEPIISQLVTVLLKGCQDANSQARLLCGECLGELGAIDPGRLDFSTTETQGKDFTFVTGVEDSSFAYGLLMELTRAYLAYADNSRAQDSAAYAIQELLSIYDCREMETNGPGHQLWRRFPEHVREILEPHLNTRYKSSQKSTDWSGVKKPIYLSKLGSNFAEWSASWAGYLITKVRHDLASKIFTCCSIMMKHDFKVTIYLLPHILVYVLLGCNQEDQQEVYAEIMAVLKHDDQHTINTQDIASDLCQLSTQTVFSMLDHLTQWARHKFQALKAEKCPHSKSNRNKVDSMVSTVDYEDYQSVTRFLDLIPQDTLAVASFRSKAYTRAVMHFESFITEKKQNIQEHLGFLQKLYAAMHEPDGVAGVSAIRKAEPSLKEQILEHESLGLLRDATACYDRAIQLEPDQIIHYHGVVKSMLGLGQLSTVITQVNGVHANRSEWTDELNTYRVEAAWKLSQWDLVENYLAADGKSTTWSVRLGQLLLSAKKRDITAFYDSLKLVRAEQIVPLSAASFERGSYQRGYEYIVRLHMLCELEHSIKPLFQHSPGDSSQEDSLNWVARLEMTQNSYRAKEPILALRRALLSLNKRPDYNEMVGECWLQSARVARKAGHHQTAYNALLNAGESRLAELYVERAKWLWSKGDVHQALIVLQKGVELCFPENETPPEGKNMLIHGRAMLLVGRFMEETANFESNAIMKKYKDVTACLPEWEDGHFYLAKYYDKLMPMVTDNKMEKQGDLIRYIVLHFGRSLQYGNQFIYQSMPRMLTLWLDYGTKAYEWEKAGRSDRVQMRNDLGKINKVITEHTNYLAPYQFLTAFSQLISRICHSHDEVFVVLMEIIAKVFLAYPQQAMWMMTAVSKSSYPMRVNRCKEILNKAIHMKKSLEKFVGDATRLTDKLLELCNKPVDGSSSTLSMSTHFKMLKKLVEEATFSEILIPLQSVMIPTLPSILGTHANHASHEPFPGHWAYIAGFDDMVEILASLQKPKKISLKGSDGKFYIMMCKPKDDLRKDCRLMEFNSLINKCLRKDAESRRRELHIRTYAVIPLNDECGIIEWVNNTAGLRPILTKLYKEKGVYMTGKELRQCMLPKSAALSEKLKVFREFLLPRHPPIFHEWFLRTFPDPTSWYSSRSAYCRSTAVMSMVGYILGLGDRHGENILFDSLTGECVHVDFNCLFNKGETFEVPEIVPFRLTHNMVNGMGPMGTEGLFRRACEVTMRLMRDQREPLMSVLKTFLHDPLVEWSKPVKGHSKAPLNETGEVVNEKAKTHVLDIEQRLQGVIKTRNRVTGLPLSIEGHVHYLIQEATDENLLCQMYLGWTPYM
Sequence of full-length human ATR protein (Q8WXE1 other isoform, or with tags, fused parts or gaps partner): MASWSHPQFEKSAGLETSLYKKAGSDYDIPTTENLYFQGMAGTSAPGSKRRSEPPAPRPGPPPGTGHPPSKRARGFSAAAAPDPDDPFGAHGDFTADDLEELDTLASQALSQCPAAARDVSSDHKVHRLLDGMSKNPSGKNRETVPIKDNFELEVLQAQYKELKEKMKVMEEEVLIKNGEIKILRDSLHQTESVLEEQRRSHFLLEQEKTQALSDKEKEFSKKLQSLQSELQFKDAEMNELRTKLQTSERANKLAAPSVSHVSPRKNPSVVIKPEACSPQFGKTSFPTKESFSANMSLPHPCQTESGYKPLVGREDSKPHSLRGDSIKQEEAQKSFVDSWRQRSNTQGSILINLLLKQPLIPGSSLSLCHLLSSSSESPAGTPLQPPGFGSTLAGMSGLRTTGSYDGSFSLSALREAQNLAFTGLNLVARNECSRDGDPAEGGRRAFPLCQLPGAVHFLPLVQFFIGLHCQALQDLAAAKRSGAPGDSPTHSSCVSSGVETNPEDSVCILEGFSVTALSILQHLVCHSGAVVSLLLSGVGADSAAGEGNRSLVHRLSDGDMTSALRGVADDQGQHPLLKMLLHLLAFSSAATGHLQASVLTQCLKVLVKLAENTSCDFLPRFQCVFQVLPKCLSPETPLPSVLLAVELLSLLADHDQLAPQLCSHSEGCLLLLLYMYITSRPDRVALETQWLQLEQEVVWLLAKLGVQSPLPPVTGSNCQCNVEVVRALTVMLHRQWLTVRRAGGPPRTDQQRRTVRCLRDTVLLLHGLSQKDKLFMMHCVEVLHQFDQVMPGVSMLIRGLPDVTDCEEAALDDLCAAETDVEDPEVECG

`OC1(C(F)(F)F)CN(c2cc(N3CCOCC3)nc3c(-c4ccn[nH]4)nccc23)C1` [Example 180, 1-[2-(morpholin-4-yl)-8-(1H-pyrazol-5-yl)-1,7-naphthyridin-4-yl]-3-(trifluoromethyl)azetidin-3-ol]: under setting [1], the IC50 was 487 nM.

With `Oc1cccc(-c2cc(N3CCOCC3)nc3c(-c4ccn[nH]4)nccc23)c1` [Example 337, 3-[2-(morpholin-4-yl)-8-(1H-pyrazol-5-yl)-1,7-naphthyridin-4-yl]phenol], the IC50 under setting [1] turned out to be 28.4 nM.

Take `Cc1cccc(-c2cc(N3CCOC[C@H]3C)nc3c(-c4ccn[nH]4)nccc23)n1` [Example 164, 2-[(3R)-3-methylmorpholin-4-yl]-4-(6-methylpyridin-2-yl)-8-(1H-pyrazol-5-yl)-1,7-naphthyridine]: the IC50 under setting [1] came out at 161 nM.

For the compound `Cc1ncc(-c2cc(N3CCOC[C@H]3C)nc3c(-c4ccn[nH]4)nccc23)cc1F` [Example 233, 4-(5-fluoro-6-methylpyridin-3-yl)-2-[(3R)-3-methylmorpholin-4-yl]-8-(1H-pyrazol-5-yl)-1,7-naphthyridine], the IC50 under setting [1] stood at 42 nM.

With `FC1CCCN(c2cc(N3CCOCC3)nc3c(-c4ccn[nH]4)nccc23)C1` (centres unmarked) [Example 426, 4-(3-fluoropiperidin-1-yl)-2-(morpholin-4-yl)-8-(1H-pyrazol-5-yl)-1,7-naphthyridine], under setting [1], the IC50 was 159 nM.

For the compound `c1cc(-c2nccc3c(-c4cc[nH]n4)cc(N4CCOCC4)nc23)[nH]n1` [Example 387, 2-(morpholin-4-yl)-4-(1H-pyrazol-3-yl)-8-(1H-pyrazol-5-yl)-1,7-naphthyridine], the IC50 under setting [1] is 218 nM.

For the compound `O=S(=O)(c1ccccc1)n1c(-c2cc(N3CCOCC3)nc3c(-c4ccn[nH]4)nccc23)cc2ccccc21` [Example 355, 2-(morpholin-4-yl)-4-[1-(phenylsulfonyl)-1H-indol-2-yl]-8-(1H-pyrazol-5-yl)-1,7-naphthyridine], the 50% inhibitory concentration (IC50) under setting [1] was found to be 484 nM.

For `C[C@@H]1COCCN1c1cc(-c2cnn(C3CC3)c2)c2ccnc(-c3ccn[nH]3)c2n1` [Example 254, 4-(1-cyclopropyl-1H-pyrazol-4-yl)-2-[(3R)-3-methylmorpholin-4-yl]-8-(1H-pyrazol-5-yl)-1,7-naphthyridine], the IC50 under setting [1] was 44.8 nM.

Turning to `Cc1cnn(C)c1-c1cc(N2CCOC[C@H]2C)nc2c(-c3ccn[nH]3)nccc12` [Example 114, 4-(1,4-dimethyl-1H-pyrazol-5-yl)-2-[(3R)-3-methylmorpholin-4-yl]-8-(1H-pyrazol-5-yl)-1,7-naphthyridine], under setting [1], the concentration for half-maximal inhibition (IC50) came out at 7.35 nM.

Turning to `CN(C)C(=O)c1ccccc1-c1cc(N2CCOCC2)nc2c(-c3ccn[nH]3)nccc12` [Example 290, N,N-dimethyl-2-[2-(morpholin-4-yl)-8-(1H-pyrazol-5-yl)-1,7-naphthyridin-4-yl]benzamide], the IC50 under setting [1] came out at 1190 nM.

As to `Cc1cccc(-c2cc(N3CCOCC3)nc3c(-c4ccn[nH]4)nccc23)c1` [Example 308, 4-(3-methylphenyl)-2-(morpholin-4-yl)-8-(1H-pyrazol-5-yl)-1,7-naphthyridine], the IC50 under setting [1] was 131 nM.

`COCc1noc(C)c1-c1cc(N2CCOC[C@H]2C)nc2c(-c3ccn[nH]3)nccc12` [Example 135, 4-[3-(methoxymethyl)-5-methyl-1,2-oxazol-4-yl]-2-[(3R)-3-methylmorpholin-4-yl]-8-(1H-pyrazol-5-yl)-1,7-naphthyridine]: the IC50 under setting [1] was 32.9 nM.

On to `CS(=O)(=O)c1cccc(-c2cc(N3CCOCC3)nc3c(-c4cc[nH]n4)nccc23)c1` [Example 15, 4-(3-methanesulphonylphenyl)-2-(morpholin-4-yl)-8-(1H-pyrazol-3-yl)-[1,7]naphthyridine], for which the IC50 under setting [1] stood at 163 nM and the IC50 under setting [2] was determined as 174 nM.

On to `C[C@@H]1COCCN1c1cc(-c2c[nH]nc2C(F)(F)F)c2ccnc(-c3ccn[nH]3)c2n1` [Example 252, 2-[(3R)-3-methylmorpholin-4-yl]-8-(1H-pyrazol-5-yl)-4-[3-(trifluoromethyl)-1H-pyrazol-4-yl]-1,7-naphthyridine], for which the IC50 under setting [1] amounted to 6.45 nM.

As for `COc1ncccc1-c1cc(N2CCOCC2)nc2c(-c3ccn[nH]3)nccc12` [Example 362, 4-(2-methoxypyridin-3-yl)-2-(morpholin-4-yl)-8-(1H-pyrazol-5-yl)-1,7-naphthyridine], under setting [1], the half-maximal inhibitory concentration (IC50) worked out at 295 nM.

Take `Nc1ccc(-c2cc(N3CCOCC3)nc3c(-c4ccn[nH]4)nccc23)cn1` [Example 386, 5-[2-(morpholin-4-yl)-8-(1H-pyrazol-5-yl)-1,7-naphthyridin-4-yl]pyridin-2-amine]: the IC50 under setting [1] was found to be 173 nM.

Regarding `C[C@@H]1COCCN1c1cc(C(C)(O)C2CCOCC2)c2ccnc(-c3ccn[nH]3)c2n1` (stereo partly drawn) [Example 282, 1-{2-[(3R)-3-methylmorpholin-4-yl]-8-(1H-pyrazol-5-yl)-1,7-naphthyridin-4-yl}-1-(tetrahydro-2H-pyran-4-yl)ethanol], the half-inhibitory concentration (IC50) under setting [1] stood at 12.7 nM.

Regarding `C[C@@H]1COCCN1c1cc(N=S(C)(=O)c2ccc(Br)cc2)c2ccnc(-c3ccn[nH]3)c2n1` (some centres unmarked) [Example 277], the half-inhibitory concentration (IC50) under setting [1] worked out at 78.2 nM.

As for `C[C@@H]1COCCN1c1cc(N(C)c2ccc(F)cc2)c2ccnc(-c3ccn[nH]3)c2n1` [Example 87, N-(4-fluorophenyl)-N-methyl-2-[(3R)-3-methylmorpholin-4-yl]-8-(1H-pyrazol-5-yl)-1,7-naphthyridin-4-amine], the IC50 under setting [1] was 8.71 nM.

As to `c1cc(-c2nccc3c(OCC4CCOCC4)cc(N4CCOCC4)nc23)[nH]n1` [Example 287, 2-(morpholin-4-yl)-8-(1H-pyrazol-5-yl)-4-(tetrahydro-2H-pyran-4-ylmethoxy)-1,7-naphthyridine], the IC50 came out at 675 nM under setting [1] and 461 nM under setting [2].

On to `Cc1cn[nH]c1-c1cc(N2CCOC[C@H]2C)nc2c(-c3ccn[nH]3)nccc12` [Example 149, 2-[(3R)-3-methylmorpholin-4-yl]-4-(4-methyl-1H-pyrazol-5-yl)-8-(1H-pyrazol-5-yl)-1,7-naphthyridine], for which, under setting [1], the half-maximal inhibitory concentration (IC50) is 48.4 nM.

`COc1cccc(-c2cc(N3CCOCC3)nc3c(-c4ccn[nH]4)nccc23)c1` [Example 306, 4-(3-methoxyphenyl)-2-(morpholin-4-yl)-8-(1H-pyrazol-5-yl)-1,7-naphthyridine]: the IC50 under setting [1] came to 82.3 nM.

As to `C[C@@H]1COCCN1c1cc(-c2ccncc2F)c2ccnc(-c3ccn[nH]3)c2n1` [Example 230, 4-(3-fluoropyridin-4-yl)-2-[(3R)-3-methylmorpholin-4-yl]-8-(1H-pyrazol-5-yl)-1,7-naphthyridine], under setting [1], the concentration for half-maximal inhibition (IC50) came out at 31.7 nM.

Regarding `CC(C)Oc1cc(N2CCOCC2)nc2c(-c3cc[nH]c3)nccc12` [Example 68, 2-(morpholin-4-yl)-4-(propan-2-yloxy)-8-(1H-pyrrol-3-yl)-1,7-naphthyridine], the IC50 by setting is: under setting [1], 589 nM; under setting [2], 472 nM.

For the compound `Cn1cc(-c2cc(N3CCOCC3)nc3c(-c4ccn[nH]4)nccc23)cn1` [Example 367, 4-(1-methyl-1H-pyrazol-4-yl)-2-(morpholin-4-yl)-8-(1H-pyrazol-5-yl)-1,7-naphthyridine], under setting [1], the concentration for half-maximal inhibition (IC50) turned out to be 215 nM.

Regarding `CC(C)Cn1cc(-c2cc(N3CCOC[C@H]3C)nc3c(-c4ccn[nH]4)nccc23)cn1` [Example 268, 2-[(3R)-3-methylmorpholin-4-yl]-4-[1-(2-methylpropyl)-1H-pyrazol-4-yl]-8-(1H-pyrazol-5-yl)-1,7-naphthyridine], the IC50 under setting [1] was 19.3 nM.

As to `CP(C)(=O)c1cc(N2CCOCC2)nc2c(-c3ccn[nH]3)nccc12` [Example 177, 4-(dimethylphosphoryl)-2-(morpholin-4-yl)-8-(1H-pyrazol-5-yl)-1,7-naphthyridine], the IC50 under setting [1] worked out at 250 nM.

With `Oc1ccc(-c2cc(N3CCOCC3)nc3c(-c4ccn[nH]4)nccc23)cc1` [Example 326, 4-[2-(morpholin-4-yl)-8-(1H-pyrazol-5-yl)-1,7-naphthyridin-4-yl]phenol], under setting [1], the IC50 amounted to 73.2 nM.

Consider `Cc1ccc(-c2cc(N3CCOCC3)nc3c(-c4ccn[nH]4)nccc23)s1` [Example 381, 4-(5-methylthiophen-2-yl)-2-(morpholin-4-yl)-8-(1H-pyrazol-5-yl)-1,7-naphthyridine], for which the IC50 under setting [1] was found to be 121 nM.

In the case of `c1ccc2sc(-c3cc(N4CCOCC4)nc4c(-c5ccn[nH]5)nccc34)cc2c1` [Example 347, 4-(1-benzothiophen-2-yl)-2-(morpholin-4-yl)-8-(1H-pyrazol-5-yl)-1,7-naphthyridine], the half-inhibitory concentration (IC50) under setting [1] came to 241 nM.

Turning to `CS(=O)(=O)Nc1ccccc1-c1cc(N2CCOCC2)nc2c(-c3ccn[nH]3)nccc12` [Example 322, N-{2-[2-(morpholin-4-yl)-8-(1H-pyrazol-5-yl)-1,7-naphthyridin-4-yl]phenyl}methanesulfonamide], the 50% inhibitory concentration (IC50) under setting [1] is 80.9 nM.

In the case of `C[C@@H]1COCCN1c1cc(-c2ccc(Cl)s2)c2ccnc(-c3ccn[nH]3)c2n1` [Example 238, 4-(5-chlorothiophen-2-yl)-2-[(3R)-3-methylmorpholin-4-yl]-8-(1H-pyrazol-5-yl)-1,7-naphthyridine], the concentration for half-maximal inhibition (IC50) under setting [1] was determined as 34.5 nM.

As a reminder, the IC50 is the concentration needed to halve the response being measured.

(Values after patent US9549932B2, “2-(morpholin-4-yl)-1,7-naphthyridines” (BAYER PHARMA AKTIENGESELLSCHAFT, priority 2014, dated 2017).)
